From paper PMC12248599, “Exploring the Bioavailability of Red Grape Skin Extract Polyphenols: A Caco-2 Cell Model Study” (Foods, 2025)
Several values for one entry are separate records, joined by “and”; a condition that tells them apart may be missing. Equal values may be shown once. Entries after “also recorded” stand apart in the source; their conditions may differ. Marks after values point to notes of the source that are not given here.

What was measured:
[1] = tested on: Caco-2 cells; details: cited from earlier work
[2] = tested on: Caco-2 cell monolayer; assay: Caco-2 monolayer transport (bioavailability) study, AB and BA directions; type: in vitro ADME, Homo sapiens; details: for reduction in concentration on the apical (donor) side: 0 to 180 min; for TE (%) transport efficiency: after 180 min
Experimental: (§1) A reversed phase C18 column (Luna 5 μm C18(2) 100 Å, LC Column 250 × 4.6 mm, Phenomenex) was used to separate the polyphenols at a flow rate of 0.7 mL/min with an injection volume of 60 µL. The detection was carried out at 520 nm for anthocyanins (M3G, D3G and Pet3G), at 328 nm for CA, at 356 nm for flavonols (Q3G, K3Gal and K3G) and at 280 nm for GA and SA. The mobile phases were (A) acetonitrile 100% and (B) water 0.1% trifluoroacetic acid (v/v). The gradient was programmed as follows: 10% A 0 min, 10–80% A (0–20 min), 80–100% A (20–25 min), 100% A (25–30 min); 10% A (30–35 min) and 10% A (35–40 min). Every polyphenol was quantified using the corresponding reference standard calibration curve. Each of the quantified phenolic compound concentration was expressed as mg/mL
(§2) For the transport experiment Caco-2 cells were cultured at a density of 4 × 10^4 cells/cm^2 in Transwell inserts (12 mm i.d., 1.12 cm^2 growth area, 0.4 µm mean pore size polycarbonate membranes, Corning Inc., Milwaukee, WI, USA) placed in 12-well plates. Caco-2 cells were grown in DMEM in an incubator at 37 °C in a humidified atmosphere containing 5% CO2.
(§3) Bioavailability studies were performed in triplicate after 21 days of cell growth. Only inserts with stable TEER values higher than ≥300 Ω cm^2 were considered acceptable to perform the bioavailability study. For that purpose, DMEM media was removed, the monolayer was washed with PBS and HBSS was supplied to the cells.
(§4) Likewise, the GSE stock solution was diluted in HBSS medium to prepare GSE solutions S1 and S2. GSE solutions S1 and S2 had concentrations of 15 mg/mL and 22 mg/mL, respectively. These concentrations were established considering previous studies with grape pomace extracts that concluded that intestinal concentrations of 1–2% (w/v) show potential bioactivities and are safe to be used as a food ingredient.
(§5) The apical side represents the intestinal lumen and the basolateral side represents the bloodstream. Each sample (100 µL) was immediately acidified with 1M HCl to a final concentration of 0.007 M and subsequently frozen at −20 °C until analysis by HPLC (according to the method described in Section 2.5). Each experiment was carried out on 3 individual wells. The transport efficiency (TE) percentage was calculated according to Equation (2):Transport efficiency (%) = (C/C0) × 100(2) where, C is the polyphenol concentration at the acceptor side over time and C0 is the initial concentration at the donor side. TE values were calculated for the nine polyphenols identified in the grape skin extract.
(§6) The apparent permeability coefficient (Papp) of the polyphenols in GSE was calculated for apical to basolateral side (AB) and basolateral to apical side (BA) flux studies according to Equation (3):Papp (cm/s) = (dQ/dt) × (VR/AC0)(3) where, dQ/dt is the permeability rate which means the steady-state linear rate of change of concentration (mg/L) per second (s) at the acceptor side; A is the surface area of the cell monolayer (1.12 cm^2). C0 is the initial concentration at the donor side (mg/L) at t = 0 s and VR is the volume of the solution of the acceptor side (mL).
(§7) The efflux ratio (ER) of the polyphenol was assessed by calculating the Equation (4):ER = Papp (BA)/Papp (AB)(4) where, Papp (BA) is the apparent permeability coefficient of the polyphenol from basolateral to apical side and Papp (AB) is the apparent permeability coefficient from apical to basolateral side. ER is a measure of the relative contributions of active and passive transport to bi-direction flux across the cell monolayer.

[3] = as above; type: in vitro ADME, Homo sapiens; details: human
Experimental: as §1, §2, §3, §4, §5, §6, §7

[4] = AB experiment, S2 (22 mg/mL GSE)
[5] = AB experiment, acceptor side, S2 (22 mg/mL GSE)
[6] = AB experiment, donor side, S1 (15 mg/mL GSE)
[7] = AB experiment, donor side, S2 (22 mg/mL GSE)
[8] = AB experiments, basolateral side
[9] = BA experiment, S2 (22 mg/mL GSE)
[10] = BA experiment, acceptor side, S1 (15 mg/mL GSE)
[11] = BA experiment, acceptor side, S2 (22 mg/mL GSE)
[12] = BA experiment, donor side, S1 (15 mg/mL GSE)
[13] = BA experiment, donor side, S2 (22 mg/mL GSE)

COc1cc(-c2[o+]c3cc(O)cc(O)c3cc2O[C@@H]2O[C@H](CO)[C@@H](O)[C@H](O)[C@H]2O)cc(OC)c1O [M3G, malvidin-3-O-glucoside]
transepithelial transport M3G efficiency ([1]; Caco-2 cells, rabbiteye blueberry extract, depending on initial extract concentration, after 2 h): 6.93–7.31% | M3G transport efficiency ([1]; after 240 min): 0.35% | reduction in concentration on the apical (donor) side ([2]; AB experiment, S1 (15 mg/mL GSE)): 75 ± 2% | reduction in concentration on the apical (donor) side [2, 4]: 58 ± 3% | TE (%) transport efficiency [2, 4]: 1.08 ± 0.01% | Basolateral Side 180 min ([2]; AB experiment, acceptor side, S1 (15 mg/mL GSE)): undetectable | Basolateral Side 75 min [2, 5]: 0.12 ± 0.01 ^b mg/L | Basolateral Side 90 min [2, 5]: 0.13 ± 0.01 ^c,d mg/L | Basolateral Side 115 min [2, 5]: 0.14 ± 0.01 ^d,c mg/L | Basolateral Side 180 min [2, 5]: 0.15 ± 0.01 ^c mg/L | Apical Side 0 min [2, 6]: 6.1 ± 0.3 mg/L and 6.1 ± 0.3 ^a mg/L | Apical Side 75 min [2, 6]: 4.5 ± 0.2 ^b mg/L | Apical Side 90 min [2, 6]: 3.2 ± 0.1 ^c mg/L | Apical Side 115 min [2, 6]: 2.26 ± 0.06 ^d mg/L | Apical Side 180 min [2, 6]: 1.53 ± 0.04 mg/L and 1.53 ± 0.04 ^c mg/L | Apical Side 0 min [2, 7]: 14 ± 1 ^a mg/L | Apical Side 75 min [2, 7]: 11.6 ± 0.9 ^b mg/L | Apical Side 90 min [2, 7]: 9.2 ± 0.9 ^c mg/L | Apical Side 115 min [2, 7]: 7.2 ± 0.9 ^d mg/L | Apical Side 180 min [2, 7]: 6.0 ± 0.8 mg/L and 6.0 ± 0.8 ^d mg/L | detection at the acceptor side [2, 8]: detected | TE (%) transport efficiency [2, 9]: 1.73 ± 0.04% | Apical Side 75 min [2, 10]: 0.19 ± 0.02 ^a,b mg/L | Apical Side 90 min [2, 10]: 0.23 ± 0.02 ^b,c mg/L | Apical Side 115 min [2, 10]: 0.28 ± 0.02 ^c mg/L | Apical Side 180 min [2, 10]: 0.33 ± 0.02 ^c mg/L | Apical Side 75 min [2, 11]: 0.18 ± 0.01 ^b mg/L | Apical Side 90 min [2, 11]: 0.22 ± 0.01 ^c mg/L | Apical Side 115 min [2, 11]: 0.26 ± 0.01 ^d mg/L | Apical Side 180 min [2, 11]: 0.30 ± 0.01 ^c mg/L | Basolateral Side 0 min [2, 12]: 10.4 ± 0.7 ^a mg/L | Basolateral Side 75 min [2, 12]: 9.7 ± 0.6 ^b mg/L | Basolateral Side 90 min [2, 12]: 9.1 ± 0.6 ^c mg/L | Basolateral Side 115 min [2, 12]: 8.5 ± 0.6 ^d mg/L | Basolateral Side 180 min [2, 12]: 8.0 ± 0.6 ^c mg/L | Basolateral Side 0 min [2, 13]: 17.5 ± 0.4 ^a mg/L | Basolateral Side 75 min [2, 13]: 16.4 ± 0.4 ^b mg/L | Basolateral Side 90 min [2, 13]: 15.4 ± 0.3 ^c mg/L | Basolateral Side 115 min [2, 13]: 14.5 ± 0.3 ^c,d mg/L | Basolateral Side 180 min [2, 13]: 13.7 ± 0.2 ^c mg/L | detection at the acceptor side ([2]; BA experiments, apical side): detected | efflux ratio at 180 min, 22 mg/mL ([3]; Caco-2, Papp (BA)/Papp (AB), S2 (22 mg/mL GSE), read-out: ER (efflux ratio)): > 1 | Papp A→B at 180 min, 22 mg/mL ([3]; Caco-2, apical to basolateral, S2 (22 mg/mL GSE)): 15 ± 1 ×10⁻⁶ cm/s | Papp B→A at 180 min, 15 mg/mL ([3]; Caco-2, basolateral to apical, S1 (15 mg/mL GSE)): 33 ± 2 ×10⁻⁶ cm/s | Papp B→A at 180 min, 22 mg/mL ([3]; Caco-2, basolateral to apical, S2 (22 mg/mL GSE)): 18 ± 1 ×10⁻⁶ cm/s

O=c1c(O[C@@H]2O[C@H](CO)[C@@H](O)[C@H](O)[C@H]2O)c(-c2ccc(O)c(O)c2)oc2cc(O)cc(O)c12 [Q3G, quercetin-3-glucoside]
Apical Side 0 min [2, 6]: 0.23 ± 0.01 ^a mg/L | Apical Side 75 min [2, 6]: 0.18 ± 0.01 ^b mg/L | Apical Side 90 min [2, 6]: 0.14 ± 0.01 ^c mg/L | Apical Side 115 min [2, 6]: 0.10 ± 0.00 ^d mg/L | Apical Side 180 min [2, 6]: 0.08 ± 0.00 ^c mg/L | Apical Side 0 min [2, 7]: 0.61 ± 0.01 ^a mg/L | Apical Side 75 min [2, 7]: 0.52 ± 0.01 ^b mg/L | Apical Side 90 min [2, 7]: 0.47 ± 0.01 ^c mg/L | Apical Side 115 min [2, 7]: 0.41 ± 0.01 ^d mg/L | Apical Side 180 min [2, 7]: 0.37 ± 0.01 ^c mg/L | detection at the acceptor side [2, 8]: not detected | TE (%) transport efficiency ([2]; BA experiment, S1 (15 mg/mL GSE)): 4.1 ± 0.1% | TE (%) transport efficiency [2, 9]: 3.6 ± 0.1% | Apical Side 75 min [2, 10]: 0.009 ± 0.001 ^b mg/L | Apical Side 90 min [2, 10]: 0.010 ± 0.001 ^b,c mg/L | Apical Side 115 min [2, 10]: 0.011 ± 0.001 ^c mg/L | Apical Side 180 min [2, 10]: 0.011 ± 0.001 ^c mg/L | Apical Side 75 min [2, 11]: 0.013 ± 0.001 ^b mg/L | Apical Side 90 min [2, 11]: 0.013 ± 0.001 ^b,c mg/L | Apical Side 115 min [2, 11]: 0.014 ± 0.001 ^c,d mg/L | Apical Side 180 min [2, 11]: 0.015 ± 0.001 ^d mg/L | Basolateral Side 0 min [2, 12]: 0.28 ± 0.02 ^a mg/L | Basolateral Side 75 min [2, 12]: 0.24 ± 0.02 ^b mg/L | Basolateral Side 90 min [2, 12]: 0.21 ± 0.02 ^c mg/L | Basolateral Side 115 min [2, 12]: 0.18 ± 0.01 ^d mg/L | Basolateral Side 180 min [2, 12]: 0.15 ± 0.01 ^c mg/L | Basolateral Side 0 min [2, 13]: 0.41 ± 0.03 ^a mg/L | Basolateral Side 75 min [2, 13]: 0.38 ± 0.03 ^a,b mg/L | Basolateral Side 90 min [2, 13]: 0.36 ± 0.03 ^a,b,c mg/L | Basolateral Side 115 min [2, 13]: 0.34 ± 0.03 ^b,c mg/L | Basolateral Side 180 min [2, 13]: 0.32 ± 0.03 ^c mg/L | detection at the acceptor side ([2]; BA experiments, apical side): detected; also recorded: quantified
